The target in assay [1] is human PDE10A2 (Homo sapiens (Human), UniProt Q9Y233). The experiment in a line: PDE10A enzyme inhibition, PDE IMAP TR-FRET assay. Type of assay: biochemical. The following applies: FAM-cAMP substrate. As to the method: An IMAP TR-FRET assay was used to analyze the enzyme activity (Molecular Devices Corp., Sunnyvale Calif.). 10 μL of serial diluted PDE10A (BPS Bioscience, San Diego, Calif.) or tissue homogenate was incubated with equal volumes of diluted fluorescein labeled cAMP or cGMP for 90 min in 384-well Polypropylene assay plates (Greiner, Monroe, N.C.) at room temperature. After incubation, the reaction was stopped by adding 55 μL of diluted binding reagents and was incubated for 4 hours to overnight at room temperature. The plates were read on an Envision (Perkin Elmer, Waltham, Mass.) for time resolved fluorescence resonance energy transfer. The data were analyzed with Genedata Screener® (Lexington, Mass.).
human PDE10A2, sequence (Q9Y233 267-1055): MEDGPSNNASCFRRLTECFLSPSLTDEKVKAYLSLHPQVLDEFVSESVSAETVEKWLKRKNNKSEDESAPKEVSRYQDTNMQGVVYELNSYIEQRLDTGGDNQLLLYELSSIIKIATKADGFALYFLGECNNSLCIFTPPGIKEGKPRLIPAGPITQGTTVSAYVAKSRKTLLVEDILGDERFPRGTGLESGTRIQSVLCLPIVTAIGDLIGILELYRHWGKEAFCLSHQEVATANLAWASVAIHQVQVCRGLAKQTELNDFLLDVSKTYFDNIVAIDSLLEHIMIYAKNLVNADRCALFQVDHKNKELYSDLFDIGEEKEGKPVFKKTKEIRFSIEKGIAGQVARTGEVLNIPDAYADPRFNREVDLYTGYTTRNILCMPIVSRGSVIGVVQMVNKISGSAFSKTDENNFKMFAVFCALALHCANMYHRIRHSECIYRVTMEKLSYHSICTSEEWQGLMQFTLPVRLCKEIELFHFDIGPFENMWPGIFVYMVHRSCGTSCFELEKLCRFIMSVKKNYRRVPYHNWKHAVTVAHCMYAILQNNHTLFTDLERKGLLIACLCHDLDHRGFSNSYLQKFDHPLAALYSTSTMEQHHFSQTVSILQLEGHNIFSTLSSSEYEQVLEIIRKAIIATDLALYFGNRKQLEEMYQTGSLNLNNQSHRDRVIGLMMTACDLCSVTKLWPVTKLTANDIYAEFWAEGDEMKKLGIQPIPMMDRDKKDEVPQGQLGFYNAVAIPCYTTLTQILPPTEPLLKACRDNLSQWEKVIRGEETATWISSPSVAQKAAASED
To check the inhibition profile, 0.2 μL of serial diluted compounds were incubated with 10 μL of diluted PDE10 enzyme (BPS Bioscience, San Diego, Calif.) or tissue homogenate in a 384-well Polypropylene assay plate (Greiner, Monroe, N.C.) for 60 min at room temperature. After incubation, 10 μL of diluted fluorescein labeled cAMP or cGMP substrate was added and incubated for 90 min at room temperature. The reaction was stopped by adding 55 μL of diluted binding reagents and plates were read on an Envision (Perkin Elmer, Waltham, Mass.) for time resolved fluorescence resonance energy transfer. The data were analyzed with Genedata Screener® (Lexington, Mass.).
(§1) Purified human PDE2A1 and PDE10A2 enzymes were obtained from BPS Bioscience (San Diego, Calif.). IMAP™ TR-FRET progressive binding system, FAM-cAMP substrate were from Molecular Devices (Sunnyvale, Calif.).
The PDE IMAP assay was conducted in a 384-well black Greiner polypropylene plate (Sigma, St. Louis, Mo.). PDE inhibitors were serial diluted in 100% DMSO and dispensed into assay plate at […] per well using Echo® Liquid Handling System from LABCYTE. Ten μL of PDE enzyme in IMAP reaction buffer (10 mM Tris-HCl, pH 7.2, 10 mM MgCl2, 0.05% NaN3, and 0.01% Tween-20) was added into the assay wells. The PDE enzyme concentration used was based on each lot of enzyme activity, to ensure enzyme reaction falls in a linear range under assay condition. 1.4 nM of PDE2 or 8 μM PDE10 were used in the assay system. […] Enzyme reaction was allowed to proceed at room temperature for 90 min, and the reaction is stopped by 55 μl addition of binding reagent according to manufacturer's recommendation. The mixture is further incubated at room temperature for additional 4 hours, and signal was read on an Envision multimode reader (PerkinElmer). Fluorescence signals were measured at 520 nm and 485 nm. The signal ratio at 520/485 nm corresponded to the generation of reaction product of AMP, and it was used in all data analysis. Values from DMSO-treated wells were normalized to POC=100, and no-enzyme wells were normalized to POC=0. IC50 values were determined by using the Genedata Screener V9.0.1. The curve fitting algorithm used for dose response data analysis in Genedata Screener is a custom implementation of a robust curve-fitting algorithm called ROUT (Robust regression with outlier detection) and uses a four-parameter logistical (4 PL) Hill model.
Background: TR-FRET usually uses a lanthanide donor and a delayed reading to cut background.

Assay [2] addresses human PDE2A1 (Homo sapiens (Human), UniProt O00408). Description: PDE2A inhibition, PDE IMAP TR-FRET assay. The format is biochemical. To be noted: FAM-cAMP substrate. As to the method:
as §1
The PDE IMAP assay was conducted in a 384-well black Greiner polypropylene plate (Sigma, St. Louis, Mo.). PDE inhibitors were serial diluted in 100% DMSO and dispensed into assay plate at […] per well using Echo® Liquid Handling System from LABCYTE. Ten μL of PDE enzyme in IMAP reaction buffer (10 mM Tris-HCl, pH 7.2, 10 mM MgCl2, 0.05% NaN3, and 0.01% Tween-20) was added into the assay wells. The PDE enzyme concentration used was based on each lot of enzyme activity, to ensure enzyme reaction falls in a linear range under assay condition. 1.4 nM of PDE2 or […] PDE10 were used in the assay system. Enzyme was pre-incubated with inhibitors for 60 minutes at room temperature before addition of 10 uL of substrate addition, which results in 100 nM of FAM-cAMP in the reaction. Enzyme reaction was allowed to proceed at room temperature for 90 min, and the reaction is stopped by 55 μl addition of binding reagent according to manufacturer's recommendation. The mixture is further incubated at room temperature for additional 4 hours, and signal was read on an Envision multimode reader (PerkinElmer). Fluorescence signals were measured at 520 nm and 485 nm. The signal ratio at 520/485 nm corresponded to the generation of reaction product of AMP, and it was used in all data analysis. Values from DMSO-treated wells were normalized to POC=100, and no-enzyme wells were normalized to POC=0. IC50 values were determined by using the Genedata Screener V9.0.1. The curve fitting algorithm used for dose response data analysis in Genedata Screener is a custom implementation of a robust curve-fitting algorithm called ROUT (Robust regression with outlier detection) and uses a four-parameter logistical (4 PL) Hill model.

For orientation: IC50 means the midpoint of a concentration-inhibition curve.

human PDE2A1, sequence (O00408 other isoform, or with tags, fused parts or gaps): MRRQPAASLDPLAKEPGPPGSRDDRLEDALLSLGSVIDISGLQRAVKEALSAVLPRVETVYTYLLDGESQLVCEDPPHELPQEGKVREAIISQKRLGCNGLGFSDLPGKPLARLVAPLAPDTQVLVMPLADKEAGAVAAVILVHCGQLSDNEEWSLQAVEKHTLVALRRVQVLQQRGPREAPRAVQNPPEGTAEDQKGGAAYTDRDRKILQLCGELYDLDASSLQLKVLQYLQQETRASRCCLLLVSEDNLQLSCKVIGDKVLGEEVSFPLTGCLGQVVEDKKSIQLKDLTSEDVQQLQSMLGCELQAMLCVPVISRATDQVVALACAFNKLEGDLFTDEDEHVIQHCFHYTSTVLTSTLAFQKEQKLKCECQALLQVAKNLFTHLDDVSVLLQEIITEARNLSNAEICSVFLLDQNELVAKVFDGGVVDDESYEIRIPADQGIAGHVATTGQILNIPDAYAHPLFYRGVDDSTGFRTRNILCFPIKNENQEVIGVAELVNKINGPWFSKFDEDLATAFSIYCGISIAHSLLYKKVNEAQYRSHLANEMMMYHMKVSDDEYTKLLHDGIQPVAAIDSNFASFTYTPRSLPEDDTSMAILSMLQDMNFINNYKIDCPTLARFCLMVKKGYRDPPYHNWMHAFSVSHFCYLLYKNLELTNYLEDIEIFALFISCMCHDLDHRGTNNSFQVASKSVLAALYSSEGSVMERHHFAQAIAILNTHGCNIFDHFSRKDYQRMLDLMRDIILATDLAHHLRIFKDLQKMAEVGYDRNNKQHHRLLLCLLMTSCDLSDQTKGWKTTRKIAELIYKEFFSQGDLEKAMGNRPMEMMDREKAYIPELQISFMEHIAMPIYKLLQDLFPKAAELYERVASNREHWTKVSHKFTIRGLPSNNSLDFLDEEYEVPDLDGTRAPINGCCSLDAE

On to `CNC(=O)c1ccc(-c2nccnc2C2CN(c3ncc4ccc(F)cc4n3)C2)cc1F` [Example 9, 2-Fluoro-4-(3-(1-(7-Fluoroquinazolin-2-Yl)Azetidin-3-Yl)Pyrazin-2-Yl)-N-Methylbenzamide], for which the IC50 in assay [1] was determined as 0.0309 µM; in assay [2], 10 µM.
For `CNC(=O)c1ccc(-c2nccnc2C2CN(c3ccc4ccccc4n3)C2)cc1F` [Example 7, 2-Fluoro-N-Methyl-4-(3-(1-(Quinolin-2-Yl)Azetidin-3-Yl) Pyrazin-2-Yl)Benzamide], in that order: 0.004 µM and 10 µM.
In the same order, the values of `CNC(=O)c1ccc(-c2nccnc2C2CCN(c3ccc4ccc(Cl)cc4n3)CC2)cc1F` [Example 1, 4-(3-(1-(7-Chloroquinolin-2-Yl)Piperidin-4-Yl)Pyrazin-2-Yl)-2-Fluoro-N-Methylbenzamide] are 0.0287 µM and 10 µM.
For `CNC(=O)c1ccc(-c2nccnc2C2CN(c3ncc4ccccc4n3)C2)cc1F` [Example 6, 2-Fluoro-N-Methyl-4-(3-(1-(Quinazolin-2-Yl)Azetidin-3-Yl)Pyrazin-2-Yl)Benzamide], in that order: 0.0076 µM and 10 µM.
As for `CNC(=O)c1ccc(-c2nccnc2C2CCN(c3ccc4cccc(F)c4n3)CC2)cc1F` [Example 5, 2-Fluoro-4-(3-(1-(8-Fluoroquinolin-2-Yl)Piperidin-4-Yl)Pyrazin-2-Yl)-N-Methylbenzamide], the IC50 turned out to be 0.0075 µM in assay [1] and 10 µM in assay [2].
In the same order, the values of `CNC(=O)c1ccc(-c2nccnc2C2CN(c3ncc4cc(F)c(Cl)cc4n3)C2)cc1F` [Example 12, 4-(3-(1-(7-Chloro-6-Fluoroquinazolin-2-Yl)Azetidin-3-Yl)Pyrazin-2-Yl)-2-Fluoro-N-Methylbenzamide] are 0.0039 µM and 10 µM.
For `CNC(=O)c1ccc(-c2nccnc2C2CN(c3ccc4cc(F)ccc4n3)C2)cc1F` [Example 13, 2-Fluoro-4-(3-(1-(6-Fluoroquinolin-2-Yl)Azetidin-3-Yl) Pyrazin-2-yl)-N-Methylbenzamide], in that order: 0.0017 µM and 10 µM.
Take `CNC(=O)c1ccc(-c2nccnc2C2CCN(c3ccc4cc(F)ccc4n3)CC2)cc1F` [Example 4, 2-Fluoro-4-(3-(1-(6-Fluoroquinolin-2-Yl)Piperidin-4-Yl)Pyrazin-2-Yl)-N-Methylbenzamide]: the IC50 came to 0.0028 µM in assay [1] and 10 µM in assay [2].
`CNC(=O)c1ccc(-c2nccnc2C2CN(c3ncc4ccc(Cl)cc4n3)C2)cc1F` [Example 10, 4-(3-(1-(7-Chloroquinazolin-2-Yl)Azetidin-3-Yl)Pyrazin-2-Yl)-2-Fluoro-N-Methylbenzamide]: the IC50 turned out to be 0.0059 µM in assay [1] and 7.38 µM in assay [2].
For `CNC(=O)c1ccc(-c2nccnc2C2CN(c3ccc4ncc(Cl)cc4n3)C2)cc1F` [Example 14, 4-(3-(1-(7-Chloro-1,5-Naphthyridin-2-Yl)Azetidin-3-Yl)Pyrazin-2-Yl)-2-Fluoro-N-Methylbenzamide], in that order: 0.0036 µM and 10 µM.
For `CNC(=O)c1ccc(-c2nccnc2C2CN(c3ncc4cc(F)ccc4n3)C2)cc1F` [Example 11, 2-Fluoro-4-(3-(1-(6-Fluoroquinazolin-2-Yl)Azetidin-3-Yl)Pyrazin-2-Yl)-N-Methylbenzamide], in that order: 0.0166 µM and 10 µM.
Regarding `CNC(=O)c1ccc(-c2nccnc2C2CCN(c3ccc4ccccc4n3)CC2)cc1F` [Example 3, 2-Fluoro-N-Methyl-4-(3-(1-(Quinolin-2-Yl)Piperidin-4-Yl)Pyrazin-2-Yl)Benzamide], the IC50 was found to be 0.0031 µM in assay [1] and 10 µM in assay [2].
As to `CNC(=O)c1ccc(-c2nccnc2C2CCN(c3ccc4ccc(F)cc4n3)CC2)cc1F` [Example 2, 2-Fluoro-4-(3-(1-(7-Fluoroquinolin-2-Yl)Piperidin-4-Yl) Pyrazin-2-Yl)-N-Methylbenzamide], the values for the IC50 in assay [1] and in assay [2] were 0.0063 µM and 10 µM, respectively.
For `CNC(=O)c1ccc(-c2nccnc2C2CN(c3ccc4ccc(F)cc4n3)C2)cc1F` [Example 8, 2-Fluoro-4-(3-(1-(7-Fluoroquinolin-2-Yl)Azetidin-3-Yl) Pyrazin-2-Yl)-N-Methylbenzamide], in that order: 0.0005 µM and 10 µM.

The values above are taken from US8691986B2, “Azetidine and piperidine compounds useful as PDE10 inhibitors” (Amgen Inc., priority 2012, dated 2014).
